Experimental data: PubChem BioAssay (NCI)
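Step 1: Grow cells in 96-well plates. Step 2: Expose to compound for 48 hours at 5 concentrations. Step 3: Interpolate endpoints linearly; if unreached, use highest concentration. GI50 = concentration required for 50% inhibition of growth. TGI marks complete inhibition of growth.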

Tests used:
Test in all cases: NCI anticancer screen, dose series, 48 h
A498 renal = tested on: A498 renal
HCC-2998 colon = tested on: HCC-2998 colon
HOP-92 NSCLC = tested on: HOP-92 NSCLC
LOX IMVI melanoma = tested on: LOX IMVI melanoma
MDA-MB-231 breast = tested on: MDA-MB-231 breast
NCI-H460 lung = tested on: NCI-H460 lung
PC-3 prostate = tested on: PC-3 prostate
RXF 393 renal = tested on: RXF 393 renal
SK-MEL-28 melanoma = tested on: SK-MEL-28 melanoma
TK-10 renal = tested on: TK-10 renal

Row | SMILES | TGI (A498 renal) [µM] | TGI (HCC-2998 colon) [µM] | TGI (HOP-92 NSCLC) [µM] | TGI (LOX IMVI melanoma) [µM] | TGI (MDA-MB-231 breast) [µM] | TGI (NCI-H460 lung) [µM] | TGI (PC-3 prostate) [µM] | TGI (RXF 393 renal) [µM] | TGI (SK-MEL-28 melanoma) [µM] | TGI (TK-10 renal) [µM] | GI50 (A498 renal) [µM] | GI50 (HCC-2998 colon) [µM] | GI50 (HOP-92 NSCLC) [µM] | GI50 (LOX IMVI melanoma) [µM] | GI50 (MDA-MB-231 breast) [µM] | GI50 (NCI-H460 lung) [µM] | GI50 (PC-3 prostate) [µM] | GI50 (RXF 393 renal) [µM] | GI50 (SK-MEL-28 melanoma) [µM] | GI50 (TK-10 renal) [µM]
1 | Cc1ccc(C)n1-c1ccccc1C1C=Cn2c(=O)oc3c(OC(C)C)c(OC(C)C)c(O)c1c32 (configuration not stated) | > 100 | > 100 | > 100 | 38.4 | 78.8 | > 100 | 93.9 | 32.7 | > 100 | > 100 | – | – | – | – | – | – | – | – | – | –
2 | OCc1ccc2c(c1)CC1(Cc3ccccc3C1)C2 | > 100 | > 100 | 38 | 29.7 | 27.4 | 44.6 | 33.5 | 36.2 | 49.6 | 61.5 | – | – | – | – | – | – | – | – | – | –
3 | CSc1nnnc2ccccc12 | > 100 | > 100 | > 100 | > 100 | > 100 | > 100 | > 100 | > 100 | > 100 | > 100 | – | – | – | – | – | – | – | – | – | –
4 | CCOc1ccc2c(c1)C(/C(C(Cl)=C(Cl)Cl)=[N+](/[O-])OC(=O)c1ccccc1)=N2 | > 100 | > 100 | > 100 | > 100 | > 100 | > 100 | > 100 | > 100 | > 100 | > 100 | – | – | – | – | – | – | – | – | – | –
5 | O=C(CC(=O)N1N=C(c2ccccc2)C(N=Nc2ccc(S(=O)(=O)CCOS(=O)(=O)O)cc2)C1=O)Nc1ccc(Cl)cc1 (configuration not stated) | > 100 | > 100 | > 100 | > 100 | > 100 | > 100 | > 100 | > 100 | > 100 | > 100 | – | – | – | – | – | – | – | – | – | –
6 | N#Cc1c(/C=C/c2ccccc2)c2c([nH]c1=S)CCCCC2 | > 100 | > 100 | > 100 | > 100 | > 100 | > 100 | > 100 | > 100 | > 100 | > 100 | – | – | – | – | – | – | – | – | – | –
7 | COc1cc2c3c(n(C)c(=O)c2cc1OC)-c1cc2c(cc1/C3=C\CCCCl)OCO2 | 80.7 | 73.2 | > 100 | > 100 | > 100 | > 100 | > 100 | 26.8 | > 100 | 37.3 | – | – | – | – | – | – | – | – | – | –
8 | Cc1ccc2sc3c(NCCCN)nc4ccccc4c3c(=O)c2c1 | 4.64 | 3.25 | 4.65 | 3.08 | 3.3 | 3.56 | 3.4 | 3.02 | 3.28 | 3.52 | 1.87 | 1.74 | 1.44 | 1.66 | 1.7 | 1.84 | 1.71 | 1.52 | 1.78 | 1.81
9 | COC1(OC)CC(CO)(COc2cc(Cl)nc(N)n2)C1 | – | > 100 | > 100 | > 100 | > 100 | > 100 | > 100 | > 100 | > 100 | > 100 | – | – | – | – | – | – | – | – | – | –
10 | C=C1c2c(n(S(=O)(=O)c3ccccc3)c3ccccc23)[C@@]2(C(=O)OC)CC3C=CC2N1C3 | – | > 100 | > 100 | > 100 | > 100 | > 100 | > 100 | > 100 | > 100 | > 100 | – | – | – | – | – | – | – | – | – | –
11 | NC(=Nc1ccccc1)N/N=C/c1c[nH]c2ccccc12 | 2.12 | 2.35 | 6.01 | 8.92 | 6.83 | 4.41 | 12.1 | 0.701 | 8.77 | 18.9 | – | – | – | – | – | – | – | – | – | –
12 | COC(=O)NC(Cc1ccccc1)NC(=O)OC(C)(C)C (configuration not stated) | > 100 | > 100 | > 100 | > 100 | > 100 | > 100 | > 100 | > 100 | > 100 | > 100 | – | – | – | – | – | – | – | – | – | –
13 | CCOC(=O)c1ccc2nc3n(c2c1)C(c1c(F)cccc1F)SC3 (configuration not stated) | > 100 | > 100 | > 100 | > 100 | > 100 | > 100 | > 100 | > 100 | > 100 | > 100 | – | – | – | – | – | – | – | – | – | –
14 | CC1(C)C2CC3C(C)(C2)C31c1cc(Cl)ccc1N (configuration not stated) | 31.8 | 28.2 | 28.6 | 30.5 | 30 | 28.9 | 27 | 22.9 | 31.3 | 29.1 | – | – | – | – | – | – | – | – | – | –
15 | NC1(c2cc3ccccc3s2)CCCCCC1 | 35.2 | 4.49 | 30.5 | 43 | 29.1 | 28.6 | 24 | 25.4 | 30.9 | 28.8 | – | – | – | – | – | – | – | – | – | –
16 | CC(=O)C(CN1C(=O)c2ccccc2C1=O)C(C)=O | > 100 | > 100 | > 100 | – | > 100 | > 100 | > 100 | 53.8 | > 100 | > 100 | – | – | – | – | – | – | – | – | – | –
